In patent US8546451B2 (priority 2005, dated 2013):
Marks after values point to notes of the source that are not given here.

Tests used:
rat ER-α = rat ER-α (Rattus norvegicus (Rat), UniProt P06211); experiment: cell-based
Procedure: Transactivation assays in agonist and antagonist modes were performed to identify whether the compound is an agonist, antagonist or a partial.
Sequencing was performed to determine the absence of any mutations. HEK-293 cells were plated at 100,000 cells per well of a 24 well plate in Dulbecco's Minimal Essential Media (DMEM) +5% charcoal-stripped fetal bovine serum (csFBS). The cells were transfected using Lipofectamine (Invitrogen, Carlsbad, Calif.) with 0.25 μg ERE-LUC, 0.02 μg CMV-LUC (renilla luciferase) and 12.5 ng of rat ER-α or 25 ng rat ER-β. […] Luciferase assays were performed 48 hrs after transfection.

CYP1A2 [1] = experiment: CYP450 induction in vitro, CYP1A2; assay type: in vitro ADME
CYP1A2 [2] = molecular target: CYP1A2 (Homo sapiens (Human), UniProt P05177); experiment: CYP450 inhibition in vitro, CYP1A2; assay type: in vitro ADME; details: at concentrations <30 μM
Chain of CYP1A2 (Homo sapiens (Human), UniProt P05177) (P05177 whole entry): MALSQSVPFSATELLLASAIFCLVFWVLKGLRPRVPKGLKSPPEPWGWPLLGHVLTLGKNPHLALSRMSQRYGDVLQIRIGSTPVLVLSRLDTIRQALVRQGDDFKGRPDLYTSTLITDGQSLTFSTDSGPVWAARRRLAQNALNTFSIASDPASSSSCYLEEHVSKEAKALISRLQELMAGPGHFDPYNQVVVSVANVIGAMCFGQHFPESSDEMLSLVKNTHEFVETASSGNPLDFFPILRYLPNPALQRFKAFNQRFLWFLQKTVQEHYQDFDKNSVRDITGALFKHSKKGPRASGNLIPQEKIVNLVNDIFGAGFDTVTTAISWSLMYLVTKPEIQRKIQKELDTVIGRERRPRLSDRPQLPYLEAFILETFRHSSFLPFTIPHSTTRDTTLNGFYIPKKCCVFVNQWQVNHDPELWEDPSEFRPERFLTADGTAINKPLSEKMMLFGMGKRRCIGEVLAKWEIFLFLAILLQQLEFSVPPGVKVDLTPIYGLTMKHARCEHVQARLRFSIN

[3] = system: testosterone, prostate specific antigen (PSA), prostate volume and weight; experiment: 39-week oral pharmacology and toxicology study in male cynomolgus monkey (13-week interim); details: for Mean serum PSA level / Percentage change of mean PSA levels compared to baseline: 4-week; for Percentage change of mean prostate volumes compared to baseline / Mean prostate volumes (ratio): 6-week; for Mean prostate volumes (ratio): TRUS, normalized to body weight; for Mean prostate weights at necropsy / Percentage change of mean prostate weights compared to baseline: 13-week; for reduction of prostate volume: six weeks; for reduction of mean prostate weights: thirteen weeks
[4] = 1 mg/kg/day oral, Estimated final concentrations
[5] = 1 mg/kg/day oral, Quantifiable concentrations only
[6] = 10 mg/kg/day oral, Estimated final concentrations
[7] = 10 mg/kg/day oral, Quantifiable concentrations only
[8] = 100 mg/kg/day oral, Estimated final concentrations
[9] = 100 mg/kg/day oral, Quantifiable concentrations only
[10] = Day 1, 1 mg/kg/day oral, Estimated final concentrations
[11] = Day 1, 1 mg/kg/day oral, Quantifiable concentrations only
[12] = Day 1, 10 mg/kg/day oral, Estimated final concentrations
[13] = Day 1, 10 mg/kg/day oral, Quantifiable concentrations only
[14] = Day 1, 100 mg/kg/day oral, Estimated final concentrations
[15] = Day 1, 100 mg/kg/day oral, Quantifiable concentrations only
[16] = Day 3, 1 mg/kg/day oral, Estimated final concentrations
[17] = Day 3, 1 mg/kg/day oral, Quantifiable concentrations only
[18] = Day 3, 10 mg/kg/day oral, Estimated final concentrations
[19] = Day 3, 10 mg/kg/day oral, Quantifiable concentrations only
[20] = Day 3, 100 mg/kg/day oral, Estimated final concentrations
[21] = Day 3, 100 mg/kg/day oral, Quantifiable concentrations only
[22] = Day 7, 1 mg/kg/day oral, Estimated final concentrations
[23] = Day 7, 1 mg/kg/day oral, Quantifiable concentrations only
[24] = Day 7, 10 mg/kg/day oral, Estimated final concentrations
[25] = Day 7, 10 mg/kg/day oral, Quantifiable concentrations only
[26] = Day 7, 100 mg/kg/day oral, Estimated final concentrations
[27] = Day 7, 100 mg/kg/day oral, Quantifiable concentrations only
[28] = Day 14, 1 mg/kg/day oral, Estimated final concentrations
[29] = Day 14, 1 mg/kg/day oral, Quantifiable concentrations only
[30] = Day 14, 10 mg/kg/day oral, Estimated final concentrations
[31] = Day 14, 10 mg/kg/day oral, Quantifiable concentrations only
[32] = Day 14, 100 mg/kg/day oral, Estimated final concentrations
[33] = Day 14, 100 mg/kg/day oral, Quantifiable concentrations only
[34] = Day 28, 1 mg/kg/day oral, Estimated final concentrations
[35] = Day 28, 1 mg/kg/day oral, Quantifiable concentrations only
[36] = Day 28, 10 mg/kg/day oral, Estimated final concentrations
[37] = Day 28, 10 mg/kg/day oral, Quantifiable concentrations only
[38] = Day 28, 100 mg/kg/day oral, Estimated final concentrations
[39] = Day 28, 100 mg/kg/day oral, Quantifiable concentrations only
[40] = Day 64, 1 mg/kg/day oral, Estimated final concentrations
[41] = Day 64, 1 mg/kg/day oral, Quantifiable concentrations only
[42] = Day 64, 10 mg/kg/day oral, Estimated final concentrations
[43] = Day 64, 10 mg/kg/day oral, Quantifiable concentrations only
[44] = Day 64, 100 mg/kg/day oral, Estimated final concentrations
[45] = Day 64, 100 mg/kg/day oral, Quantifiable concentrations only
[46] = Day 90, 1 mg/kg/day oral, Estimated final concentrations
[47] = Day 90, 1 mg/kg/day oral, Quantifiable concentrations only
[48] = Day 90, 10 mg/kg/day oral, Estimated final concentrations
[49] = Day 90, 10 mg/kg/day oral, Quantifiable concentrations only
[50] = Day 90, 100 mg/kg/day oral, Estimated final concentrations
[51] = Day 90, 100 mg/kg/day oral, Quantifiable concentrations only

Chain of rat ER-α (P06211 whole entry): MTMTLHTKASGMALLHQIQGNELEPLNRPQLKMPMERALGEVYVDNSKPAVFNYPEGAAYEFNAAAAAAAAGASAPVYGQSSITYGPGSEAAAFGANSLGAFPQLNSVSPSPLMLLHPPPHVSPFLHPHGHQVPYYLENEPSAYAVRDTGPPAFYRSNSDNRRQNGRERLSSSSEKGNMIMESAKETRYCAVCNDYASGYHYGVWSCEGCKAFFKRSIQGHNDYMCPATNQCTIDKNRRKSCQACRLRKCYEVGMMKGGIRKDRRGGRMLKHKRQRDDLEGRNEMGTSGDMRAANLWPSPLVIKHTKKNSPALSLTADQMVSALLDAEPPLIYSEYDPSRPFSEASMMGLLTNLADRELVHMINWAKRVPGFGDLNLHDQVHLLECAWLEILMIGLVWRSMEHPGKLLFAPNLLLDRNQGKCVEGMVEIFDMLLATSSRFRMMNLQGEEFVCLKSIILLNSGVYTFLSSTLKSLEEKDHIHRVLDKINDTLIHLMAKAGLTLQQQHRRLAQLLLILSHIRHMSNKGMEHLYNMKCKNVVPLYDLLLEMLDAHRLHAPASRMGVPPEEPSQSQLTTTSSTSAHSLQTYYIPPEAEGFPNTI

## O=C(c1ccc(O)c(F)c1)N(c1ccc(O)cc1)c1ccc(F)cc1 [Compound IV, 3-fluoro-N-(4-fluorophenyl)-4-hydroxy-N-(4-hydroxyphenyl)benzamide]
Rat ER-α
  ERα activity in transient transfection assays: agonist
  selectivity for ERα over ERβ in transcriptional activation: 49.0 fold
Rat ER-α; estradiol 1 nM, concentrations up to 10 μM
  antagonist effects on estradiol-stimulated transcriptional activation: no antagonist effects were observed
Rat ER-α; normalized to estradiol values
  relative selectivity in transactivation potency for ERα over ERβ: 9.7 fold
CYP1A2 [1]
  induction of CYP1A2: does not induce
CYP1A2 [2]
  inhibition of CYP1A2: does not inhibit
[3]; 10 mg/kg for 4 weeks
  PSA reduction (in mean): 69%
[3]; 100 mg/kg for 4 weeks
  PSA reduction (in mean): 87%
[3]; 100 mg/kg, 91 days (FIG. 14)
  body weight reduction: ~20%
[3]; [4]
  Mean serum PSA level: 0.9 ng/mL
  Percentage change of mean PSA levels compared to baseline: −11%
[3]; [5]
  Mean serum PSA level: 0.9 ng/mL
  Percentage change of mean PSA levels compared to baseline: −11%
[3]; [6]
  Mean serum PSA level: 0.3* ng/mL
  Percentage change of mean PSA levels compared to baseline: −69%
[3]; [7]
  Mean serum PSA level: 0.3 ng/mL
  Percentage change of mean PSA levels compared to baseline: −64%
[3]; [8]
  Mean serum PSA level: 0.1^& ng/mL
  Percentage change of mean PSA levels compared to baseline: −87%
[3]; [9]
  Mean serum PSA level: 0.3 ng/mL
  Percentage change of mean PSA levels compared to baseline: −72%
[3]; 1 mg/kg/day oral
  Percentage change of mean prostate volumes compared to baseline: 6.8%
  Mean prostate volumes (ratio): 468
  Mean prostate weights at necropsy: 1.8 grams
  Percentage change of mean prostate weights compared to baseline: 1.7%
[3]; 10 mg/kg/day oral
  Percentage change of mean prostate volumes compared to baseline: −25%
  Mean prostate volumes (ratio): 327
  Mean prostate weights at necropsy: 1.3 grams
  Percentage change of mean prostate weights compared to baseline: −24%
[3]; 100 mg/kg/day oral
  Percentage change of mean prostate volumes compared to baseline: −45%
  Mean prostate volumes (ratio): 242
  Mean prostate weights at necropsy: 1.4 grams
  Percentage change of mean prostate weights compared to baseline: −21%
[3]; 91 days (FIG. 14)
  gynecomastia or hyperestrogenicity: No sign of gynecomastia or hyperestrogenicity
[3]; [10]
  Mean serum testosterone level: 11 ng/mL
  Percentage change of mean serum testosterone levels compared to baseline: 44%
[3]; [11]
  Mean serum testosterone level: 11 ng/mL
  Percentage change of mean testosterone levels compared to baseline: 44%
[3]; [12]
  Mean serum testosterone level: 7.6 ng/mL
  Percentage change of mean serum testosterone levels compared to baseline: 54%
[3]; [13]
  Mean serum testosterone level: 7.6 ng/mL
  Percentage change of mean testosterone levels compared to baseline: 54%
[3]; [14]
  Mean serum testosterone level: 8.0 ng/mL
  Percentage change of mean serum testosterone levels compared to baseline: 82%
[3]; [15]
  Mean serum testosterone level: 8.0 ng/mL
  Percentage change of mean testosterone levels compared to baseline: 82%
[3]; [16]
  Mean serum testosterone level: 7.4 ng/mL
  Percentage change of mean serum testosterone levels compared to baseline: 1.8%
[3]; [17]
  Mean serum testosterone level: 7.4 ng/mL
  Percentage change of mean testosterone levels compared to baseline: 1.8%
[3]; [18]
  Mean serum testosterone level: 5.1 ng/mL
  Percentage change of mean serum testosterone levels compared to baseline: 3.5%
[3]; [19]
  Mean serum testosterone level: 5.1 ng/mL
  Percentage change of mean testosterone levels compared to baseline: 3.5%
[3]; Day 3, 100 mg/kg/day oral
  suppression of serum testosterone relative to the baseline value: 60%
[3]; [20]
  Mean serum testosterone level: 1.8* ng/mL
  Percentage change of mean serum testosterone levels compared to baseline: −60%
[3]; [21]
  Mean serum testosterone level: 1.8 ng/mL
  Percentage change of mean testosterone levels compared to baseline: −60%
[3]; [22]
  Mean serum testosterone level: 6.7 ng/mL
  Percentage change of mean serum testosterone levels compared to baseline: −8.1%
[3]; [23]
  Mean serum testosterone level: 6.7 ng/mL
  Percentage change of mean testosterone levels compared to baseline: −8.1%
[3]; [24]
  Mean serum testosterone level: 7.7 ng/mL
  Percentage change of mean serum testosterone levels compared to baseline: 57%
[3]; [25]
  Mean serum testosterone level: 7.7 ng/mL
  Percentage change of mean testosterone levels compared to baseline: 57%
[3]; Day 7, 100 mg/kg/day oral
  suppression of serum testosterone relative to the baseline value: 51%
[3]; [26]
  Mean serum testosterone level: 2.2* ng/mL
  Percentage change of mean serum testosterone levels compared to baseline: −51%
[3]; [27]
  Mean serum testosterone level: 2.2 ng/mL
  Percentage change of mean testosterone levels compared to baseline: −51%
[3]; [28]
  Mean serum testosterone level: 3.8 ng/mL
  Percentage change of mean serum testosterone levels compared to baseline: −48%
[3]; [29]
  Mean serum testosterone level: 3.8 ng/mL
  Percentage change of mean testosterone levels compared to baseline: −48%
[3]; [30]
  Mean serum testosterone level: 7.1 ng/mL
  Percentage change of mean serum testosterone levels compared to baseline: 45%
[3]; [31]
  Mean serum testosterone level: 7.1 ng/mL
  Percentage change of mean testosterone levels compared to baseline: 45%
[3]; Day 14, 100 mg/kg/day oral
  suppression of serum testosterone relative to the baseline value: 42%
[3]; [32]
  Mean serum testosterone level: 2.6 ng/mL
  Percentage change of mean serum testosterone levels compared to baseline: −42%
[3]; [33]
  Mean serum testosterone level: 2.6 ng/mL
  Percentage change of mean testosterone levels compared to baseline: −42%
[3]; [34]
  Mean serum testosterone level: 4.7 ng/mL
  Percentage change of mean serum testosterone levels compared to baseline: −35%
[3]; [35]
  Mean serum testosterone level: 4.7 ng/mL
  Percentage change of mean testosterone levels compared to baseline: −35%
[3]; [36]
  Mean serum testosterone level: 9.4 ng/mL
  Percentage change of mean serum testosterone levels compared to baseline: 92%
[3]; [37]
  Mean serum testosterone level: 9.4 ng/mL
  Percentage change of mean testosterone levels compared to baseline: 92%
[3]; Day 28, 100 mg/kg/day oral
  suppression of serum testosterone relative to the baseline value: 79%
[3]; [38]
  Mean serum testosterone level: 0.9* ng/mL
  Percentage change of mean serum testosterone levels compared to baseline: −79%
[3]; [39]
  Mean serum testosterone level: 0.9 ng/mL
  Percentage change of mean testosterone levels compared to baseline: −79%
[3]; [40]
  Mean serum testosterone level: 4.3 ng/mL
  Percentage change of mean serum testosterone levels compared to baseline: −41%
[3]; [41]
  Mean serum testosterone level: 4.3 ng/mL
  Percentage change of mean testosterone levels compared to baseline: −41%
[3]; [42]
  Mean serum testosterone level: 5.4 ng/mL
  Percentage change of mean serum testosterone levels compared to baseline: 11%
[3]; [43]
  Mean serum testosterone level: 5.4 ng/mL
  Percentage change of mean testosterone levels compared to baseline: 11%
[3]; Day 64, 100 mg/kg/day oral
  suppression of serum testosterone relative to the baseline value: 92%
[3]; [44]
  Mean serum testosterone level: 0.3* ng/mL
  Percentage change of mean serum testosterone levels compared to baseline: −92%
[3]; [45]
  Mean serum testosterone level: 0.3 ng/mL
  Percentage change of mean testosterone levels compared to baseline: −92%
[3]; [46]
  Mean serum testosterone level: 4.2 ng/mL
  Percentage change of mean serum testosterone levels compared to baseline: −42%
[3]; [47]
  Mean serum testosterone level: 4.2 ng/mL
  Percentage change of mean testosterone levels compared to baseline: −42%
[3]; [48]
  Mean serum testosterone level: 4.6 ng/mL
  Percentage change of mean serum testosterone levels compared to baseline: −5.5%
[3]; [49]
  Mean serum testosterone level: 4.6 ng/mL
  Percentage change of mean testosterone levels compared to baseline: −5.5%
[3]; [50]
  Mean serum testosterone level: 0.2* ng/mL
  Percentage change of mean serum testosterone levels compared to baseline: −96%
  suppression of serum testosterone relative to the baseline value: 96%
[3]; [51]
  Mean serum testosterone level: 0.2 ng/mL
  Percentage change of mean testosterone levels compared to baseline: −95%
[3]; after 90 days, 100 mg/kg/day oral, LLOQ 0.246 ng/mL
  monkeys with testosterone below the limit of quantification: 6 of 10
[3]; any dose up to 100 mg/kg/day
  testosterone flare: not observed
[3]; cynomolgus monkey, in vivo
  effects on platelet aggregation, prothrombin time (PT) or activated partial thromboplastin time (APTT): No apparent effects
[3]; 10 mg/kg
  reduction of prostate volume: 25%
[3]; 100 mg/kg
  reduction of prostate volume: 45%
[3]; 10 mg/kg/day
  reduction of mean prostate weights: 24%
[3]; 100 mg/kg/day
  reduction of mean prostate weights: 21%
